Results on one compound are retold here after PMC8467576, “Novel Ubiquitin Specific Protease-13 Inhibitors Alleviate Neurodegenerative Pathology” (Metabolites, 2021).

Where “and” joins values, the source holds several entries; their conditions need not be identical. Equal entries are not always repeated. Where two headings read alike, the source gives them in different places.

For orientation: Cmax means the maximum level reached in the sampled fluid or tissue. One may read the Tmax as the time from dosing to the highest level. One may read the AUC as concentration integrated over time. A low value points to less exposure.

Series [1] in a line: Pharmacokinetics in wild type C57BL6 mice (brain and serum, UHPLC-MS/MS). In kind it is in vivo. The settings on record: C57BL/6, mouse, ip, 10 mg/kg I.P.; for AUC: over 12 h; for half-life: read-out: T1/2 (elimination) (converted). The procedure:
Wild type C57BL6 mice were injected with 10 mg/kg BK50118-C versus DMSO, and the brain and serum were isolated at 0, 1, 2, 4, 6, 8 and 12 h; extracted in water and examined by mass spectrometry. […] Elimination (T1/2) was 2.32 h for brain and 1.84 h in serum.
C57BL/6 mice received a single intraperitoneal dose (10 mg/kg) of BK50118-C. Brain and serum samples were collected at 1, 2, 3, 4, 8 and 12 h (n = 3 per time point). Animals injected with vehicle (DMSO) were used for background subtraction. Stock solution of the drug (1 mg/mL) and internal standards were prepared in methanol. Intermediate solutions used for the calibrators and control samples were serial-diluted in methanol/water (1:1). Preparation of the calibration curve standards and quality samples (QC) were performed by mixing the intermediate dilutions in blank samples (brain homogenates, serum). The internal standard working solution contained deuterium labeled BK50118-C-d7 at the concentration of 5 ng/mL diluted in acetonitrile (ACN)/ethyl acetate (4:1). Serum and brain samples were stored at −80 °C and then thawed to room temperature prior to preparation. The brains were homogenized in MilliQ water (1 mg brain: 10 µL water). Proteins were precipitated in both brain and serum samples by mixing 25 µL aqueous sample with 75 µL internal standard working solution. The mixture was centrifuged at 12,300× g for 5 min. Thereafter, 75 µL of each supernatant and 25 µL of MilliQ water were pipetted into a 96-well PCR plate (Fisher Scientific, Dawsonville, GA, USA).
The concentrations of BK50118-C in the brain tissue and serum samples were measured by ultrahigh performance liquid chromatography tandem mass spectrometry (UHPLC-MS/MS). Briefly, the UHPLC-MS/MS system included an Elute HTG binary gradient UHPLC pump, an Elute column oven and an EVOQ Elite triple quadrupole mass spectrometer (all from Bruker Daltonik GmbH, Bremen, Germany) equipped with an electrospray ionization (ESI) source operating in a positive mode. The samples were injected by use of a PAL auto sampler (CTC Analytics, Zwingen, Switzerland) equipped with a 10-µL sample loop; the samples were kept in a PAL stack cooler for 6 microtiter plates and operating at +6 °C. The system was controlled by a Compass 2.0/HyStar 4.0 software (Bruker); the compound screening and quantitation was performed by a TASQ 2.2 data acquisition and processing software (Bruker). The mass spectrometer was supplied by nitrogen and air generated by a Genius 3045 nitrogen/air generator (Peak Scientific Instruments, Inchinnan, Scotland, UK). The ESI parameters were as follows: probe gas flow 50, nebulizer gas flow 60, probe temperature +400 °C, cone gas flow 20, cone temperature +350 °C, CID gas Ar 1.5 mTorr. The mass spectra were scanned in the MRM mode to find the optimal collision energies for the test compounds and their respective precursor ions.
For chromatographic separation, an YMC-Ultra HT Hydrosphere C18 column (2.0 × 100 mm, 2 µm particle size) and an YMC-Hydrosphere 2.1 × 5 mm guard column (YMC Co. Ltd., Kyoto, Japan) were used. The mobile phase A was 10 mM ammonium formate, pH 4.3, in water; the mobile phase B was 10 mM ammonium formate, pH 4.3, in 10% water, 50% acetonitrile and 40% isopropyl alcohol. The mobile phase gradient was as follows (min—A/B%): 0 min—50/50, 0.5 min—50/50, 2.0 min—20/80, 3 min—20/80, 3.1 min—50/50, 4.5 min—50/50. The flow rate was 450 µL/min, and the column temperature was set at 50 °C. The sample injection volume was 10 µL.

For series [2], the system named is tyrosine hydroxylase (TH). Briefly: Tyrosine hydroxylase staining in striatum of TgA53T mice. The format is in vivo, mouse. The settings on record: 40 mg/Kg I.P. daily for 7 days, vs DMSO. The text has this: To ascertain the mechanistic effects of BK50118-C on alpha-synuclein clearance, we performed immunostaining in striatum of TgA53T mice. […] We also performed the staining of tyrosine hydroxylase (TH) in the striatum of TgA53T mice. TH is the enzyme responsible for catalyzing the rate limiting step in synthesis of L-3,4-dihydroxyphenylalanine(L-DOPA) which is a precursor for dopamine (DA). Staining of TH will help to evaluate the status of DA producing neurons in the SN and their terminals in the striatum.
BK50118-C is one of novel small molecule inhibitors of USP13 synthesized in our laboratory. For BK50118-C treatment, approximately 15 months old (±1 month) male and female TgA53T mice were treated with intraperitoneal injection of vehicle (DMSO) or BK50118-C at the daily dosage of 10 mg/Kg or 40 mg/Kg for 7 days. Animals were age and sex-matched in their respective treatment cohorts. All animals were sacrificed after treatment. […]
Immunohistochemistry was performed on the 20 µm thick brain sections for evaluation of ubiquitination of alpha-synuclein. […] The optic densitometry of co-localization of ubiquitin with alpha-synuclein was measured using Image J. Tyrosine hydroxylase (TH) is the limiting enzyme in DA synthesis, so probing for TH+ neurons will help to evaluate the status of DA producing neurons in the SN and their terminals in the striatum. […]

As to `Fc1ccc2nccc(OCc3ccccc3)c2c1` [BK50118-C, 4-benzyloxy-6-fluoroquinoline], in series [1] (brain and serum, read-out: Ratio of Serum/Brain), the Kp was 0.28. In addition, in series [1] (brain), the Cmax is 81.5 nM and 20.6 ng/mL; the Tmax stood at 1 h; the AUC is 0.164 ± 0.0395 µM·h; the half-life is 139 min. In series [1] (serum), the Cmax is 89.7 ng/mL and 355 nM; the Tmax is 1 h; the AUC was 0.599 ± 0.143 µM·h; the half-life was 110 min. Further, the “tyrosine hydroxylase (TH) staining” value in series [2] is recorded as “did not show any noticeable effects”.
